{
  "source": "paper PMC6006285",
  "about": "“Specific stereochemistry of OP-1074 disrupts estrogen receptor alpha helix 12 and confers pure antiestrogenic activity” (Nature Communications, 2018)",
  "key": {"[1]": {"biological_target": "T1, glucocorticoid receptor (GR) (Homo sapiens, UniProt P04150)", "T1 construct": "HeLa cells were transfected as above but also with plasmids for full length wild; expressed in transfected cells; host or cells: HeLa", "T1 sequence (P04150 1-777)": "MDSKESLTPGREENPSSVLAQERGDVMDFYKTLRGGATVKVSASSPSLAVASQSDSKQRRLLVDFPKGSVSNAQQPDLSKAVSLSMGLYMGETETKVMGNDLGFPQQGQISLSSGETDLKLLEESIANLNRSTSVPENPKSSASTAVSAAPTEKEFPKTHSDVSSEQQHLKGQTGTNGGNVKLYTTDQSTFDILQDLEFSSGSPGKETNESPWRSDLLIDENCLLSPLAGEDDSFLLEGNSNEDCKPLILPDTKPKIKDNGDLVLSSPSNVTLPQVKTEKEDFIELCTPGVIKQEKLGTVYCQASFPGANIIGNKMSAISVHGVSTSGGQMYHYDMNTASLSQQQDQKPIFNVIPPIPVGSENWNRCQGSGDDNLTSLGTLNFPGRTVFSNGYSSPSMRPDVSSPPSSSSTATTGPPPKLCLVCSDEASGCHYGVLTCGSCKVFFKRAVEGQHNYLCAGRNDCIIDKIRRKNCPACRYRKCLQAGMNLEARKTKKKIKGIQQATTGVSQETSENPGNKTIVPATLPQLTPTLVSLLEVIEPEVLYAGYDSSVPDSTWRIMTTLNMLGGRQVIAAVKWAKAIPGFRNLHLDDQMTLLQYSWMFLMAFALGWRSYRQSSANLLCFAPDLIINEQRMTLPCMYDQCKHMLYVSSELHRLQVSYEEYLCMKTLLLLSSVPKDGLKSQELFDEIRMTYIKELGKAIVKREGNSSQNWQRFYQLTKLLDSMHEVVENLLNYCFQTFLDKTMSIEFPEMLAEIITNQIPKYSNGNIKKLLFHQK", "test": "PRE3X-TATA-Luc reporter in HeLa cells transfected with GR", "format": "cell-based", "details": "alone or + 32 nM Dex, 22 h", "experimental": "(§1) representative experiment. […]\n(§2) receptor (AR, (B)), glucocorticoid receptor (GR, (C)), and the B-isoform of the progesterone receptor (PR-B, (D)). HeLa cells were transfected with the designated wild type receptor along with reporter gene PRE3X-TATA-Luc, which is promiscuously activated with known agonists specific for each receptor: R1881 for AR, dexamethasone (Dex) for GR, and medroxyprogesterone acetate (MPA) for PR-B. Each receptor was also dosed with one concentration of known antagonist for each receptor: 32 nM bicalutamide for AR, and 500 nM RU486 for GR and PR. Transfected cells were treated with the designated ligands for 22 hours and luciferase activity assayed. Shown are representative experiments, independently performed at least 3 times. Note that curves for agonists for each receptor were performed in separate experiments. Shown are means with SEM, normalized to percent of 32 nM R1881 for AR, 32 nM Dex for GR, and 0.5 µM MPA for PR-B (except with MPA alone, which was normalized to […]\n(§3) either ERα or ERβ, and 85 ng ERE-3x-Luc, containing 3 copies of estrogen-response element (ERE) cloned into pGL4.23 luciferase reporter gene containing a minimal TATA promoter […]\n(§4) hours (1.25% total final charcoal dextran stripped FBS). Bright Glo luciferase reagent (Promega) […]"}, "[2]": {"system": "uterus of ovariectomized BALB/c mice", "test": "Uterine wet weight (uterotrophic assay) in ovariectomized BALB/c mice", "format": "in vivo, mouse", "details": "100 mg/kg oral gavage daily for 3 days", "from_the_text": "Shown is a representative figure analyzed and presented as above.\nTo confirm that OP-1074 lacks agonist activity in the uterus, we tested it in ovariectomized BALB/c mice in a uterotrophic assay. […] Thus, OP-1074 is a pure antiestrogen in the mouse uterus.\nAnimals were euthanized and uteri dissected and weighed."}, "[3]": {"biological_target": "T2, androgen receptor (AR) (Homo sapiens, UniProt P10275)", "T2 construct": "HeLa cells were transfected as above but also with plasmids for full length wild; expressed in transfected cells; host or cells: HeLa", "T2 sequence (P10275 1-920)": "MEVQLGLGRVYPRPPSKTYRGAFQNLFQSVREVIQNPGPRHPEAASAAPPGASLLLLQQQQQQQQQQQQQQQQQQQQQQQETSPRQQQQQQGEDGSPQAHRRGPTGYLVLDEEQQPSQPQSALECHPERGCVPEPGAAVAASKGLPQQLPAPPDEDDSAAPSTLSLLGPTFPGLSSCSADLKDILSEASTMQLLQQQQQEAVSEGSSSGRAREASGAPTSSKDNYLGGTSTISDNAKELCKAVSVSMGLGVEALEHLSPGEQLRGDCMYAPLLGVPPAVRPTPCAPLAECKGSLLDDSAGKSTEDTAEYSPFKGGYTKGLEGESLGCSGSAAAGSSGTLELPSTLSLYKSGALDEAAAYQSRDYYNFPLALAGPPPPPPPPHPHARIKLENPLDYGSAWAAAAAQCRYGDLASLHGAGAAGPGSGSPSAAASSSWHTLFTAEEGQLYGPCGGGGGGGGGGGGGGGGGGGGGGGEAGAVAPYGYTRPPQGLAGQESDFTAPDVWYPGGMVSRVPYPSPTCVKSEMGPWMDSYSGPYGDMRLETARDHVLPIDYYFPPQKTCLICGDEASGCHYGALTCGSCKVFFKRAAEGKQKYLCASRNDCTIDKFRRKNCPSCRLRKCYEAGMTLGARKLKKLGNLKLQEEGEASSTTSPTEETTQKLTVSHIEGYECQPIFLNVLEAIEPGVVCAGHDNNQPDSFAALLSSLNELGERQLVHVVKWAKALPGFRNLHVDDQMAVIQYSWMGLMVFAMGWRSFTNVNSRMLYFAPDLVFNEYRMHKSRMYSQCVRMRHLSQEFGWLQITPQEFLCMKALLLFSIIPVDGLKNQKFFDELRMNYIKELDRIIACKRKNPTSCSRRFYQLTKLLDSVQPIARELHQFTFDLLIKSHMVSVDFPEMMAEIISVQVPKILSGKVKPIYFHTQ", "test": "PRE3X-TATA-Luc reporter in HeLa cells transfected with AR", "format": "cell-based", "details": "alone or + 32 nM R1881, 22 h", "experimental": "as §1, §2, §3, §4"}},
  "data": [
    {"compound": "CC1=C(c2ccc(O)cc2)[C@H](c2ccc(OCCN3CC[C@@H](C)C3)cc2)Oc2cc(O)ccc21", "note": "[OP-1074]", "values": [
      {"measurement": "Agonist and antagonist activity on GR", "setting": "[1]", "result": "lacks agonist and antagonist activity"},
      {"measurement": "Uterine wet weight, agonist mode", "setting": "[2]; absence of E2, OP-1074 as mixture of active and inactive diastereomers", "result": "did not increase uterine wet weight"},
      {"measurement": "Uterine wet weight, antagonist mode", "setting": "[2]; co-treated with E2 subcutaneously", "result": "not significantly different from fulvestrant"},
      {"measurement": "Agonist and antagonist activity on AR", "setting": "[3]", "result": "lacks agonist and antagonist activity"}
    ]}
  ]
}
